We go through 26 compounds from patent US20230135894A1, “MK2 DEGRADERS AND USES THEREOF” (Kymera Therapeutics, Inc., priority 2021, published 2023).

Bounds are passed on as bounds.

The target of experiment [1] is T1, MK2 (Homo sapiens, UniProt P49137). Kind of experiment: MK2 degradation in human THP-1 monocytic cells (MSD, 24 h). The class given is cell-based. Also noted: endogenous in cells; key to MK2 MSD THP-1 degradation 24 h GMean External Abs DC50: A (<0.001 μM); B (0.001-0.01 μM); C (0.01-0.1 μM); D (>0.1 μM); —: “-”=not tested or inactive. The conditions noted are these: for Dmax: THP-1, THP-1 cells; for DC50: read-out: MK2 MSD THP-1 degradation 24 h GMean External Abs DC50. A digest of the protocol: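 Readout: residual MK2 protein in THP-1 lysates, measured by MSD electrochemiluminescence sandwich assay after 24 h compound exposure (≤10-point serial dilutions, 0.1% DMSO, 37 °C). Curves normalised between lysis-buffer and DMSO-cell signals; DC50 by 4-parameter logistic fit.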
T1 sequence (P49137 whole entry): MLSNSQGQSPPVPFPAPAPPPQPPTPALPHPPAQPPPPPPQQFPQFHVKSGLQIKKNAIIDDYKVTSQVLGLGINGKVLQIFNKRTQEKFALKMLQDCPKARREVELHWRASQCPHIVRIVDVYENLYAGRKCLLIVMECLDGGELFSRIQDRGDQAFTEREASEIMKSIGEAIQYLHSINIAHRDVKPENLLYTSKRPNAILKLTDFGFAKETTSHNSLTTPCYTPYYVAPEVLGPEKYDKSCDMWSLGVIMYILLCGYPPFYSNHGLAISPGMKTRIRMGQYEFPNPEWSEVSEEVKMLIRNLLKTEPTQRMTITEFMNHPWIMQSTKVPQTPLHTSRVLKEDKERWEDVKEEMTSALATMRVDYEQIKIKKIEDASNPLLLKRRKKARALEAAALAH

Experiment [2] deals with T1, MK2. Kind of experiment: MK2 degradation in human SW1353 cells (MSD, 24 h). The class given is cell-based. Also noted: endogenous in cells; host or cells: SW-1353 (ATCC HTB-94); key to MK2 MSD SW1353 degradation 24 h GMean External Abs DC50: A (<0.001 μM); B (0.001-0.01 μM); C (0.01-0.1 μM); D (>0.1 μM); —: “-”=not tested or inactive; key to MK2 MSD SW 1353 24 h Dmax %: —: “-”=not tested or inactive. The conditions noted are these: for Dmax: read-out: MK2 MSD SW 1353 24 h Dmax %; for DC50: read-out: MK2 MSD SW1353 degradation 24 h GMean External Abs DC50. A digest of the protocol: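 DC50 derived by 4-parameter logistic fit, with DMSO-treated signal as top and lysis-buffer signal as bottom. Remaining MK2 was measured by MSD electrochemiluminescent sandwich assay in RIPA lysates of human SW1353 cells exposed for 24 h at 37 °C to serially diluted compound in 0.1% DMSO.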

As to `C[C@@H]1CNc2c(sc3ccc4nc(-c5cccc(C#CCCNC(=O)CCCCCCCc6cccc7c6n(C)c(=O)n7C6CCC(=O)NC6=O)c5)ccc4c23)C(=O)N1` (some centres unmarked) [Compound I-48], the Dmax on MK2 [1] and at MK2 [2] was above 75% in each case. The DC50 – broadly, the midpoint of the concentration-degradation curve – at MK2 [1] (THP-1 cells) fell in the range of 10 to 100 nM; at MK2 [2], 1 to 10 nM.

In the case of `Cn1c(=O)n(C2CCC(=O)NC2=O)c2ccc(N3CCC(CN4CCN(c5ccc(-c6cc(-c7cc8c([nH]7)C7(CCCC7)CNC8=O)ccn6)c(F)c5)CC4)CC3)cc21` (centres unmarked) [Compound I-424], the Dmax on MK2 [1] and at MK2 [2] was above 75% throughout. Further, the DC50 on MK2 [1] (THP-1 cells) was 1 to 10 nM; at MK2 [2], below 1 nM.

Regarding `COc1ccc2c(c1N1CCC(CN3CCN(c4ccc(-c5ccc6c(ccc7sc8c(c76)NC[C@@H](C)NC8=O)n5)cn4)CC3)CC1)n(C)c(=O)n2C1CCC(=O)NC1=O` (some centres unmarked) [Compound I-255], the Dmax at MK2 [1] and at MK2 [2] was above 75% throughout. In addition, the DC50 at MK2 [1] (THP-1 cells) and at MK2 [2] was 1 to 10 nM in each case.

Consider `C[C@@H]1CN(C)c2c(sc3ccc4nc(-c5ccc(N6CCN(CCc7cccc8c7n(C)c(=O)n8C7CCC(=O)NC7=O)CC6)nc5)ccc4c23)C(=O)N1` (some centres unmarked) [Compound I-414], for which the Dmax on MK2 [1] and at MK2 [2] was above 75% in each case. The DC50 is 1 to 10 nM at MK2 [1] (THP-1 cells) and below 1 nM at MK2 [2].

On to `C[C@@H]1CNc2c(sc3ccc4nc(-c5ccc(N6CCN(CCCCCc7ccc8c(c7)n(C)c(=O)n8C7CCC(=O)NC7=O)CC6)cc5)ccc4c23)C(=O)N1` (some centres unmarked) [Compound I-174], for which the Dmax at MK2 [1] and on MK2 [2] was above 75% in each case. For the same compound, the DC50 at MK2 [1] (THP-1 cells) and at MK2 [2] was below 1 nM in each case.

Take `C[C@@H]1CNc2c(sc3ccc4nc(N5CCC6(CC5)CN(C5CCN(c7cccc8c7n(C)c(=O)n8C7CCC(=O)NC7=O)CC5)C6)ccc4c23)C(=O)N1` (some centres unmarked) [Compound I-441]: the Dmax on MK2 [1] and at MK2 [2] was above 75% each time. In addition, the values for the DC50 on MK2 [1] (THP-1 cells) and at MK2 [2] were 1 to 10 nM and below 1 nM, respectively.

In the case of `C[C@@H]1CNc2c(sc3ccc4nc(N5CC6CCC(C5)N6CC5CCN(c6cccc7c6n(C)c(=O)n7C6CCC(=O)NC6=O)CC5)ccc4c23)C(=O)N1` (some centres unmarked) [Compound I-436], at MK2 [1], the Dmax – broadly, the greatest extent of degradation seen – was below 50%. For the same compound, the DC50 on MK2 [1] (THP-1 cells) was above 100 nM. Further, on MK2 [2], the “MK2 MSD SW 1353 24 h Dmax %” value was “—” and the 50% degradation concentration (DC50) is above 100 nM.

Consider `Cc1ccc(NC(=O)c2cccc(C(F)(F)F)c2)cc1N1Cc2cnc(Nc3ccc(N4CCN(CCCCCC(=O)N[C@H](C(=O)N5C[C@H](O)C[C@H]5C(=O)N[C@@H](C)c5ccc(-c6scnc6C)cc5)C(C)(C)C)CC4)nc3)nc2N(C)C1=O` [Compound I-462], for which the Dmax at MK2 [1] and at MK2 [2] was above 75% throughout. Moreover, the figures for the 50% degradation concentration (DC50) at MK2 [1] (THP-1 cells) and at MK2 [2] were 1 to 10 nM and 10 to 100 nM, respectively.

For `C[C@@H]1CNc2c(sc3ccc4nc(-c5cc(N6CCC(CN7CCC(c8cccc9c8n(C)c(=O)n9C8CCC(=O)NC8=O)CC7)CC6)ccc5F)ccc4c23)C(=O)N1` (some centres unmarked) [Compound I-284], the Dmax on MK2 [1] and at MK2 [2] was above 75% in each case. Moreover, the DC50 on MK2 [1] (THP-1 cells) and on MK2 [2] was 1 to 10 nM throughout.

With `C[C@@H]1CNc2c(sc3ccc4nc(-c5ccc(N6CCC(CN7CCN(c8cccc9c(N%10CCC(=O)NC%10=O)cncc89)CC7)CC6)cc5)ccc4c23)C(=O)N1` [Compound I-317], the Dmax at MK2 [1] and on MK2 [2] was above 75% each time. For the same compound, the DC50 is below 1 nM on MK2 [1] (THP-1 cells) and 1 to 10 nM on MK2 [2].

For the compound `C[C@@H]1CNc2c(sc3ccc4nc(-c5cc(N6CCC(CN7CCN(c8cccc9c8n(C)c(=O)n9C8CCC(=O)NC8=O)CC7)CC6)ccc5F)ccc4c23)C(=O)N1` (some centres unmarked) [Compound I-285], the Dmax on MK2 [1] and at MK2 [2] was above 75% in each case. Further, the DC50 on MK2 [1] (THP-1 cells) and at MK2 [2] was 1 to 10 nM throughout.

On to `C[C@@H]1CNc2c(sc3ccc4nc(-c5ccc(N6CCN(C[C@H]7C[C@@H](c8ccc9c(c8)n(C)c(=O)n9C8CCC(=O)NC8=O)C7)CC6)cc5)ccc4c23)C(=O)N1` (some centres unmarked) [Compound I-221], for which the maximal degradation (Dmax) on MK2 [1] and on MK2 [2] was above 75% throughout. For the same compound, the DC50 on MK2 [1] (THP-1 cells) and on MK2 [2] was below 1 nM each time.

On to `CN1CC2(CNC(=O)c3c2[nH]c2c3CCc3cnc(-c4cc(N5CCN(CCCCc6cccc7c6n(C)c(=O)n7C6CCC(=O)NC6=O)CC5)ccc4F)cc3-2)C1` (centres unmarked) [Compound I-155], for which the Dmax on MK2 [1] and on MK2 [2] was below 50% each time. Besides, the DC50 at MK2 [1] (THP-1 cells) and on MK2 [2] was above 100 nM in each case.

Turning to `Cc1nc(N2CCN(CC3CN(c4ccc5c(c4)n(C)c(=O)n5C4CCC(=O)NC4=O)C3)CC2)ccc1-c1ccc2c(ccc3sc4c(c32)NC[C@@H](C)NC4=O)n1` (some centres unmarked) [Compound I-234], the Dmax at MK2 [1] and on MK2 [2] was above 75% each time. The half-maximal degradation concentration (DC50) on MK2 [1] (THP-1 cells) and at MK2 [2] was below 1 nM throughout.

For `C[C@@H]1CNc2c(sc3ccc4nc(-c5ccc(N6CCC(CCN7CCN(c8ccc9c(c8)n(C)c(=O)n9C8CCC(=O)NC8=O)CC7)CC6)cc5)ccc4c23)C(=O)N1` (some centres unmarked) [Compound I-131], the Dmax at MK2 [1] and on MK2 [2] was above 75% each time. For the same compound, the DC50 at MK2 [1] (THP-1 cells) and on MK2 [2] was below 1 nM throughout.

Take `C[C@@H]1CNc2c(sc3ccc4nc(-c5ccnc(N6CCC(CN7CCN(c8ccc9c(c8)n(C)c(=O)n9C8CCC(=O)NC8=O)CC7)CC6)c5)ccc4c23)C(=O)N1` (some centres unmarked) [Compound I-277]: the Dmax on MK2 [1] and at MK2 [2] was above 75% in each case. Besides, the DC50 on MK2 [1] (THP-1 cells) and on MK2 [2] was below 1 nM throughout.

For the compound `Cn1c(=O)n(C2CCC(=O)NC2=O)c2cccc(CCCN3CCN(c4ccc(F)c(-c5cc(-c6cc7c([nH]6)CCNC7=O)ccn5)c4)CC3)c21` (centres unmarked) [Compound I-133], the Dmax at MK2 [1] and on MK2 [2] was below 50% each time. The DC50 on MK2 [1] (THP-1 cells) and on MK2 [2] was above 100 nM each time.

On to `Cn1c(=O)n(C2CCC(=O)NC2=O)c2ccc(N3CCC(CN4CCN(c5ccc(-c6cc(-c7cc8c([nH]7)CCNC8=O)ccn6)cc5)CC4)CC3)cc21` (centres unmarked) [Compound I-143], for which the Dmax on MK2 [1] and on MK2 [2] was above 75% throughout. In addition, the DC50 on MK2 [1] (THP-1 cells) and on MK2 [2] was below 1 nM throughout.

`Cn1c(=O)n(C2CCC(=O)NC2=O)c2ccc(N3CCC(CN4CCN(c5ccc(-c6cc(-c7cc8c([nH]7)C7(CCC7)CNC8=O)ccn6)cc5)CC4)CC3)cc21` (centres unmarked) [Compound I-205]: on MK2 [1], the Dmax is above 75%. Moreover, the 50% degradation concentration (DC50) at MK2 [1] (THP-1 cells) was below 1 nM. At MK2 [2], the “MK2 MSD SW 1353 24 h Dmax %” value is reported as “—” and the “MK2 MSD SW1353 degradation 24 h GMean External Abs DC50” value is “—”.

On to `C[C@@H]1CNc2c(sc3ccc4nc(N5CCC6(CC5)CC(N5CCN(c7ccc8c(c7)n(C)c(=O)n8C7CCC(=O)NC7=O)CC5)C6)ccc4c23)C(=O)N1` (some centres unmarked) [Compound I-185], for which the Dmax at MK2 [1] is above 75%. Besides, the “MK2 MSD THP-1 degradation 24 h GMean External Abs DC50” value on MK2 [1] (THP-1 cells) was “—”. Moreover, on MK2 [2], the “MK2 MSD SW1353 degradation 24 h GMean External Abs DC50” value was “—” and the Dmax is above 75%.

Turning to `C[C@@H]1CNc2c(sc3ccc4nc(-c5cccc(N6CCN(CCCCCCCCc7ccc8c(c7)n(C)c(=O)n8C7CCC(=O)NC7=O)CC6)c5)ccc4c23)C(=O)N1` (some centres unmarked) [Compound I-176], the values for the Dmax on MK2 [1] and on MK2 [2] were 50 to 75% and above 75%, respectively. Moreover, the 50% degradation concentration (DC50) on MK2 [1] (THP-1 cells) and at MK2 [2] was 1 to 10 nM in each case.

Turning to `Cn1c(=O)n(C2CCC(=O)NC2=O)c2cccc(CCN3CCN(c4ccc(-c5cc(-c6cc7c([nH]6)C6(CC6)CNC7=O)ccn5)cc4)CC3)c21` (centres unmarked) [Compound I-203], the maximal degradation (Dmax) at MK2 [1] was above 75%. Besides, the DC50 at MK2 [1] (THP-1 cells) fell in the range of 1 to 10 nM. For the same compound, at MK2 [2], the “MK2 MSD SW1353 degradation 24 h GMean External Abs DC50” value is “—” and the Dmax was above 75%.

As for `C[C@@H]1CNc2c(sc3ccc4nc(-c5cc(C#N)cc(N6CCN(CC7CCN(c8ccc9c(c8)n(C)c(=O)n9C8CCC(=O)NC8=O)CC7)CC6)c5)ccc4c23)C(=O)N1` (some centres unmarked) [Compound I-240], the Dmax on MK2 [1] and on MK2 [2] was above 75% in each case. The half-maximal degradation concentration (DC50) at MK2 [1] (THP-1 cells) and on MK2 [2] was below 1 nM each time.

As for `C[C@@H]1CNc2c(sc3ccc4nc(-c5cccc(N6CCN(CCCc7cccc8c7n(C)c(=O)n8C7CCC(=O)NC7=O)CC6)c5)ccc4c23)C(=O)N1` (some centres unmarked) [Compound I-93], the Dmax at MK2 [1] and at MK2 [2] was above 75% each time. The figures for the DC50 at MK2 [1] (THP-1 cells) and on MK2 [2] were below 1 nM and 1 to 10 nM, respectively.

`Cc1cc(N2CCN(CC3CN(c4ccc5c(c4)n(C)c(=O)n5C4CCC(=O)NC4=O)C3)CC2)ccc1-c1ccc2c(ccc3sc4c(c32)NC[C@@H](C)NC4=O)n1` (some centres unmarked) [Compound I-236]: the maximal degradation (Dmax) on MK2 [1] and at MK2 [2] was above 75% each time. Also, the DC50 at MK2 [1] (THP-1 cells) and on MK2 [2] was below 1 nM in each case.

For `C[C@@H]1CNc2c(sc3ccc4nc(-c5ccc(N6CCC(CN7CCC(c8ccc9c(c8)n(C)c(=O)n9C8CCC(=O)NC8=O)CC7)CC6)cc5)ccc4c23)C(=O)N1` (some centres unmarked) [Compound I-119], the greatest degradation seen (Dmax) at MK2 [1] and on MK2 [2] was above 75% throughout. Further, the DC50 on MK2 [1] (THP-1 cells) and at MK2 [2] was below 1 nM in each case.
